Measured values from patent US9994555B2, “Chromenone inhibitors of monocarboxylate transporters” (THE SCRIPPS RESEARCH INSTITUTE, priority 2015, dated 2018).

Tested on: Raji (Burkitt's) lymphoma cells
Test: MTT assay for 4-day viability of Raji (Burkitt's) lymphoma cells
Format: cell-based
Details: Homo sapiens, 96 h, Raji (Burkitt's) lymphoma cells highly expressing MCT1, estimated EC50 given as bin, read-out: approximate potency (EC50)
Excerpt: Specific Examples of compounds of the invention, with estimated EC50 values determined using an MTT assay for 4-day viability of Raji (Burkitt's) lymphoma cells, a cell line known to highly express MCT1 and to be sensitive to small molecule MCT inhibitors,^4 are shown in Table 8. Assay protocols follow those described in the literature.^4 Other assays that are not described here but that are standard in the field, such as an assay for competitive inhibition of transport of radiolabeled lactic acid, an MCT substrate, may also be useful in establishing mechanism of action of these compounds.

Row | SMILES | EC50
1 | Cc1cc(=O)c2c(OCCCO)cc(Oc3ccnc4ccccc34)cc2o1 [Example 1, 5-(3-hydroxypropoxy)-2-methyl-7-(quinolin-4-yloxy)-4H-chromen-4-one] | 1000 to 10000 nM
2 | Cc1cc(=O)c2c(OCCCO)cc(OCc3cccc4ccccc34)cc2o1 [Example 2, 5-(3-hydroxypropoxy)-2-methyl-7-(naphthalen-1-ylmethoxy)-4H-chromen-4-one] | 1000 to 10000 nM
3 | Cc1cc(=O)c2c(OCCCCO)cc(OCc3cccc4ccccc34)cc2o1 [Example 3, 5-(4-hydroxybutoxy)-2-methyl-7-(naphthalen-1-ylmethoxy)-4H-chromen-4-one] | 1000 to 10000 nM
4 | Cc1cc(=O)c2c(OCC(O)CO)cc(Oc3ccnc4ccccc34)cc2o1 (stereo not drawn) [Example 4, 5-(2,3-dihydroxypropoxy)-2-methyl-7-(quinolin-4-yloxy)-4H-chromen-4-one] | ≥ 10000 nM
5 | CC(C)c1cc(=O)c2c(OCCCCO)cc(OCc3cccc4ccccc34)cc2o1 [Example 5, 5-(4-hydroxybutoxy)-2-isopropyl-7-(naphthalen-1-ylmethoxy)-4H-chromen-4-one] | 100 to 1000 nM
6 | CC(C)c1cc(=O)c2c(OCCCO)cc(OCc3ccnc4ccccc34)cc2o1 [Example 6, 5-(3-hydroxypropoxy)-2-isopropyl-7-(quinolin-4-ylmethoxy)-4H-chromen-4-one] | 100 to 1000 nM
7 | CC(C)c1cc(=O)c2c(OCCCO)cc(OCc3cccc4ccccc34)cc2o1 [Example 7, 5-(3-hydroxypropoxy)-2-isopropyl-7-(naphthalen-1-ylmethoxy)-4H-chromen-4-one] | 100 to 1000 nM
8 | CC(C)c1cc(=O)c2c(OCc3ccccc3CO)cc(OCc3cccc4ccccc34)cc2o1 [Example 8, 5-((2-(hydroxymethyl)benzyl)oxy)-2-isopropyl-7-(naphthalen-1-ylmethoxy)-4H-chromen-4-one] | ≤ 100 nM
9 | CC(C)c1cc(=O)c2c(OCc3ccccc3CO)cc(Oc3ccnc4ccccc34)cc2o1 [Example 9, 5-((2-(hydroxymethyl)benzyl)oxy)-2-isopropyl-7-(quinolin-4-yloxy)-4H-chromen-4-one] | ≤ 100 nM
10 | CC(C)c1cc(=O)c2c(OCc3ccccc3CO)cc(OCc3cccnc3C(F)(F)F)cc2o1 [Example 10, 5-((2-(hydroxymethyl)benzyl)oxy)-2-isopropyl-7-((2-(trifluoromethyl)pyridin-3-yl)methoxy)-4H-chromen-4-one] | ≤ 100 nM
11 | CC(C)c1cc(=O)c2c(OCc3ccccc3CO)cc(Oc3ncccc3C(F)(F)F)cc2o1 [Example 11, 5-((2-(hydroxymethyl)benzyl)oxy)-2-isopropyl-7-((3-(trifluoromethyl)pyridin-2-yl)oxy)-4H-chromen-4-one] | ≤ 100 nM
12 | CC(C)c1cc(=O)c2c(OCc3ccccc3CO)cc(OCc3cccc(C(F)(F)F)c3)cc2o1 [Example 12, 5-((2-(hydroxymethyl)benzyl)oxy)-2-isopropyl-7-((3-(trifluoromethyl)benzyl)oxy)-4H-chromen-4-one] | ≤ 100 nM
13 | CC(C)c1cc(=O)c2c(OCc3ccccc3CO)cc(OCc3ccccn3)cc2o1 [Example 13, 5-((2-(hydroxymethyl)benzyl)oxy)-2-isopropyl-7-(pyridin-2-ylmethoxy)-4H-chromen-4-one] | ≤ 100 nM
14 | CC(C)c1cc(=O)c2c(OCc3ccccc3CO)cc(OCc3cccnc3)cc2o1 [Example 14, 5-((2-(hydroxymethyl)benzyl)oxy)-2-isopropyl-7-(pyridin-3-ylmethoxy)-4H-chromen-4-one] | ≤ 100 nM
15 | CC(C)c1cc(=O)c2c(OCc3ccccc3CO)cc(OCc3ccncc3)cc2o1 [Example 15, 5-((2-(hydroxymethyl)benzyl)oxy)-2-isopropyl-7-(pyridin-4-ylmethoxy)-4H-chromen-4-one] | 100 to 1000 nM
16 | CC(C)c1cc(=O)c2c(OCc3ccccc3CO)cc(OCc3cncc(C(F)(F)F)c3)cc2o1 [Example 16, 5-((2-(hydroxymethyl)benzyl)oxy)-2-isopropyl-7-((5-(trifluoromethyl)pyridin-3-yl)methoxy)-4H-chromen-4-one] | ≤ 100 nM
17 | CC(C)c1cc(=O)c2c(OCc3ccccc3CO)cc(Oc3ccncc3C(F)(F)F)cc2o1 [Example 17, 5-((2-(hydroxymethyl)benzyl)oxy)-2-isopropyl-7-((3-(trifluoromethyl)pyridin-4-yl)oxy)-4H-chromen-4-one] | ≤ 100 nM
18 | O=c1cc(-c2ccccc2)oc2cc(OCc3cccc4ccccc34)cc(OCCCCO)c12 [Example 29, 5-(4-hydroxybutoxy)-7-(naphthalen-1-ylmethoxy)-2-phenyl-4H-chromen-4-one] | 1000 to 10000 nM
19 | CC(C)c1cc(=O)c2c(OCCCCO)cc(OCc3ccnc4ccccc34)cc2o1 [Example 30, 5-(4-hydroxybutoxy)-2-isopropyl-7-(quinolin-4-ylmethoxy)-4H-chromen-4-one] | ≤ 100 nM
20 | CC(C)c1cc(=O)c2c(OCCCCO)cc(COc3cccc4ccccc34)cc2o1 [Example 35, 5-(4-hydroxybutoxy)-2-isopropyl-7-((naphthalen-1-yloxy)methyl)-4H-chromen-4-one] | 1000 to 10000 nM

The remaining lines, values ahead:

Row | EC50 | SMILES
21 | 100 to 1000 nM | CC(C)c1cc(=O)c2c(OCc3ccccc3CO)cc(OCc3cncs3)cc2o1 [Example 18, 5-((2-(hydroxymethyl)benzyl)oxy)-2-isopropyl-7-(thiazol-5-ylmethoxy)-4H-chromen-4-one]
22 | ≤ 100 nM | CC(C)c1cc(=O)c2c(OCc3ccccc3CO)cc(OCc3cccc4cccnc34)cc2o1 [Example 19, 5-((2-(hydroxymethyl)benzyl)oxy)-2-isopropyl-7-(quinolin-8-ylmethoxy)-4H-chromen-4-one]
23 | ≤ 100 nM | CC(C)c1cc(=O)c2c(OCc3ccccc3CO)cc(OCc3ccc4ccccc4n3)cc2o1 [Example 20, 5-((2-(hydroxymethyl)benzyl)oxy)-2-isopropyl-7-(quinolin-2-ylmethoxy)-4H-chromen-4-one]
24 | 100 to 1000 nM | CC(C)c1cc(=O)c2c(OCc3ccccc3CO)cc(OCc3ccc4ncccc4c3)cc2o1 [Example 21, 5-((2-(hydroxymethyl)benzyl)oxy)-2-isopropyl-7-(quinolin-6-ylmethoxy)-4H-chromen-4-one]
25 | 100 to 1000 nM | O=c1cc(C2CC2)oc2cc(OCc3cccc4ccccc34)cc(OCc3ccccc3CO)c12 [Example 22, 2-cyclopropyl-5-((2-(hydroxymethyl)benzyl)oxy)-7-(naphthalen-1-ylmethoxy)-4H-chromen-4-one]
26 | ≤ 100 nM | O=c1cc(C2CC2)oc2cc(OCc3cccnc3C(F)(F)F)cc(OCc3ccccc3CO)c12 [Example 23, 2-cyclopropyl-5-((2-(hydroxymethyl)benzyl)oxy)-7-((2-(trifluoromethyl)pyridin-3-yl)methoxy)-4H-chromen-4-one]
27 | ≤ 100 nM | CC(C)c1cc(=O)c2c(OCc3ccccc3CO)cc(OCc3ccnc4ccccc34)cc2o1 [Example 24, 5-((2-(hydroxymethyl)benzyl)oxy)-2-isopropyl-7-(quinolin-4-ylmethoxy)-4H-chromen-4-one]
28 | ≤ 100 nM | CC(C)c1cc(=O)c2c(OCc3ccccc3CO)cc(OCc3cnc(Cl)c4ccccc34)cc2o1 [Example 25, 7-((1-chloroisoquinolin-4-yl)methoxy)-5-((2-(hydroxymethyl)benzyl)oxy)-2-isopropyl-4H-chromen-4-one]
29 | 1000 to 10000 nM | O=c1cc(-c2ccccc2)oc2cc(Oc3ccnc4ccccc34)cc(OCCCO)c12 [Example 26, 5-(3-hydroxypropoxy)-2-phenyl-7-(quinolin-4-yloxy)-4H-chromen-4-one]
30 | ≥ 10000 nM | O=c1cc(-c2ccccc2)oc2cc(Oc3ccnc4ccccc34)cc(OCC(O)CO)c12 (stereo not drawn) [Example 27, 5-(2,3-dihydroxypropoxy)-2-phenyl-7-(quinolin-4-yloxy)-4H-chromen-4-one]
31 | 1000 to 10000 nM | O=c1cc(-c2ccccc2)oc2cc(OCc3cccc4ccccc34)cc(OCCCO)c12 [Example 28, 5-(3-hydroxypropoxy)-7-(naphthalen-1-ylmethoxy)-2-phenyl-4H-chromen-4-one]
32 | 100 to 1000 nM | Cc1cc(=O)c2c(OCc3ccccc3CO)cc(Oc3ccnc4ccccc34)cc2o1 [Example 31, 5-((2-(hydroxymethyl)benzyl)oxy)-2-methyl-7-(quinolin-4-yloxy)-4H-chromen-4-one]
33 | 100 to 1000 nM | CC(C)c1cc(=O)c2c(OCc3ccccc3CO)cc(Oc3cc(C(F)(F)F)ccn3)cc2o1 [Example 32, 5-((2-(hydroxymethyl)benzyl)oxy)-2-isopropyl-7-((4-(trifluoromethyl)pyridin-2-yl)oxy)-4H-chromen-4-one]
34 | 100 to 1000 nM | CC(C)c1cc(=O)c2c(OCc3ccccc3CO)cc(OCc3cncnc3)cc2o1 [Example 33, 5-((2-(hydroxymethyl)benzyl)oxy)-2-isopropyl-7-(pyrimidin-5-ylmethoxy)-4H-chromen-4-one]
35 | 1000 to 10000 nM | CC(C)c1cc(=O)c2c(CCCCO)cc(OCc3cccc4ccccc34)cc2o1 [Example 36, 5-(4-hydroxybutyl)-2-isopropyl-7-(naphthalen-1-ylmethoxy)-4H-chromen-4-one]
36 | 1000 to 10000 nM | CC(C)c1cc(=O)c2c(CCCCCO)cc(OCc3cccc4ccccc34)cc2o1 [Example 37, 5-(5-hydroxypentyl)-2-isopropyl-7-(naphthalen-1-ylmethoxy)-4H-chromen-4-one]
37 | 1000 to 10000 nM | CC(C)c1cc(=O)c2c(-c3cccc(CCO)c3)cc(OCc3cccc4ccccc34)cc2o1 [Example 38, 5-(3-(2-hydroxyethyl)phenyl)-2-isopropyl-7-(naphthalen-1-ylmethoxy)-4H-chromen-4-one]
38 | 1000 to 10000 nM | CC(C)c1cc(=O)c2c(-c3cc(CO)ccc3Cl)cc(OCc3cccc4ccccc34)cc2o1 [Example 39, 5-(2-chloro-5-(hydroxymethyl)phenyl)-2-isopropyl-7-(naphthalen-1-ylmethoxy)-4H-chromen-4-one]
39 | 1000 to 10000 nM | CC(C)c1cc(=O)c2c(-c3cc(CO)ccc3F)cc(OCc3cccc4ccccc34)cc2o1 [Example 40, 5-(2-fluoro-5-(hydroxymethyl)phenyl)-2-isopropyl-7-(naphthalen-1-ylmethoxy)-4H-chromen-4-one]
